This assay concerns the target T1, elastase from human neutrophil (Homo sapiens, UniProt P08246).
T1 construct: using elastase from human neutrophil; from tissue; host or cells: human neutrophil
T1 sequence (P08246 30-247 limits assumed): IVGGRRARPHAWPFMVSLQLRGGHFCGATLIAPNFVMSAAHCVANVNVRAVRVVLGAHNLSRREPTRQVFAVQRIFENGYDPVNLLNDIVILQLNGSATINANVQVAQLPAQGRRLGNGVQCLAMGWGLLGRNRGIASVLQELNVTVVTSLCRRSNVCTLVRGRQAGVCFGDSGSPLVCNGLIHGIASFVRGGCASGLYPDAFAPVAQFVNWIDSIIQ
As to the kind of experiment: Inhibitory effect on elastase (spectrophotometric method, substrate Suc-Ala-Pro-Ala-pNA). The format is biochemical. The conditions noted are these: for inhibition at 50 µg/mL: at 50 μg/ml, read-out: Elastase Inhibitory Effect, Inhibition %.

Where [1] appears, read: Y represents a sulfur atom, pH 8.0, 37° C., 30 minutes, read-out: Elastase Inhibitory Effect, IC50.
The mark [2] stands for this setting: Y represents an oxygen atom, pH 8.0, 37° C., 30 minutes, read-out: Inhibitory Effect on Elastase, IC50.

Read-outs that look alike come from different tables or passages of the source. A value given as a limit tells only on which side of the number the result lay.

Experimental: The test was carried out by the slight modification of the method of Bieth et al [see Biochem. Med., 75, 350 (1974)] using elastase from human neutrophil.
The reaction mixture consisted of 1 mM Suc-Ala-Pro-Ala-pNA (dissolving in N-methylpyrrolidone to the concentration of 100 mM, and then adding 1/100 amount of the solution to the reaction mixture.), 0.1 M buffer solution of tris-hydrochloric acid (pH 8.0), 0.2 M sodium chloride aqueous solution, the sample solution of various concentrations and enzyme solution in a final volume of 1.0 ml was incubated at 37° C. for 30 minutes.
The reaction was stopped by the addition of 100 μl of 50% acetic acid into the reaction mixture, and then p-nitro anilide released was measured on absorbance of 405 nm.
Inhibition percentage of the test compounds was caliculated by the following equation: [formula]

By IC50 is commonly meant the concentration needed to halve the response being measured. The inhibition is the percentage by which the read-out fell short of the control. As for `N=C(N)Nc1ccc(C(=O)Sc2ccccc2Cl)cc1` [Example 132], the IC50 under setting [1] was determined as 1.8 µM. The inhibition at 50 µg/mL (Y represents a sulfur atom) turned out to be 93%. In the case of `CCN(CC)S(=O)(=O)c1ccc(OC(=O)c2ccc(NC(=N)N)cc2)cc1` [Example 93], the IC50 under setting [2] amounted to 58 µM.

`CCS(=O)(=O)Oc1cc(C)cc(OC(=O)c2ccc(NC(=N)N)cc2)c1` [Example 78]: the IC50 under setting [2] was determined as 27 µM. Take `N=C(N)Nc1ccc(C(=O)Oc2cc(Cl)cc(C(=O)Nc3cccnc3)c2)cc1` [Example 86]: the IC50 under setting [2] stood at 0.93 µM. Turning to `CCOC(=O)Cc1ccc(SC(=O)c2ccc(NC(=N)N)cc2)cc1` [Example 144], for the setting “Y represents a sulfur atom”, the inhibition at 50 µg/mL turned out to be 75.5%. As to `CC(=O)OCc1cc(Cl)cc(OC(=O)c2ccc(NC(=N)N)cc2)c1` [Example 71], the IC50 under setting [2] came out at 3 µM. In the case of `Cc1cccc(OC(=O)c2ccc(NC(=N)N)cc2)c1` [Example 3], at 100 µM the inhibition (Y represents an oxygen atom) was 45.6%.

As for `CC(=O)Oc1ccc(OC(=O)c2ccc(NC(=N)N)cc2)cc1` [Example 60], testing at 100 µM (Y represents an oxygen atom) gave an inhibition of 27.8%. With `CCNC(=O)Oc1cc(Cl)cc(OC(=O)c2ccc(NC(=N)N)cc2)c1` [Example 88], the IC50 was determined as 1.1 µM. In the case of `N=C(N)Nc1ccc(C(=O)Oc2cccc(Cl)c2)cc1` [Example 35], under setting [2], the IC50 is 8 µM. The compound further yielded an inhibition at 100 µM (Y represents an oxygen atom) of 87.6%. In the case of `CN(C)S(=O)(=O)c1ccc(NC(=O)c2cc(Cl)cc(OC(=O)c3ccc(NC(=N)N)cc3)c2)cc1` [Example 103], the IC50 under setting [2] was 0.95 µM. Still for that read-out and setting: the result for `N=C(N)Nc1ccc(SCc2cc(Cl)cc(OC(=O)c3ccc(NC(=N)N)cc3)c2)cc1` [Example 120] reads 6 µM.

Turning to `N=C(N)Nc1ccc(C(=O)Oc2cc(Cl)cc(COc3ccc(S(=O)(=O)N4CCOCC4)cc3)c2)cc1` [Example 151, P-guanidinobenzoic acid 3-chloro-5-(4-morpholinosulfonyl)phenoxymethylphenylester acetate], the IC50 under setting [2] is 1.4 µM. Same read-out and setting: with `CCS(=O)(=O)Nc1cc(Cl)cc(OC(=O)c2ccc(NC(=N)N)cc2)c1` [Example 106] the figure was 15 µM. In the case of `N=C(N)Nc1ccc(C(=O)Sc2ccc(Cl)cc2)cc1` [Example 134], the inhibition at 50 µg/mL (Y represents a sulfur atom) came to 69.5%. In the case of `COC(=O)c1ccc(OC(=O)c2ccc(NC(=N)N)cc2)c(Cl)c1` [Example 15], under setting [2], the IC50 came out at 98 µM. The compound further had an inhibition at 100 µM (Y represents an oxygen atom) of 55.6%. As to `CCOC(=O)c1ccc(SC(=O)c2ccc(NC(=N)N)cc2)cc1` [Example 142], the inhibition at 50 µg/mL (Y represents a sulfur atom) came to 69.1%. `N=C(N)Nc1ccc(C(=O)Oc2cc(C(F)(F)F)cc(C(F)(F)F)c2)cc1` [Example 47]: the IC50 under setting [2] amounted to 3.2 µM. On to `COC(=O)C=Cc1ccc(OC(=O)c2ccc(NC(=N)N)cc2)cc1` [Example 27], for which the inhibition at 100 µM (Y represents an oxygen atom) came to 31%. For the compound `N=C(N)Nc1ccc(C(=O)Sc2ccc(C(=O)O)cc2)cc1` [Example 139], the inhibition at 50 µg/mL (Y represents a sulfur atom) is 23.2%. Regarding `COCc1cc(OC(=O)c2ccc(NC(=N)N)cc2)cc(OC(=O)c2ccc(NC(=N)N)cc2)c1` [Example 13], under setting [2], the IC50 is 9.1 µM. Where the note is “Y represents an oxygen atom”, this compound came in with an inhibition at 100 µM of 89%. Under “Y represents an oxygen atom”, `COC(=O)Cc1ccc(OC(=O)c2ccc(NC(=N)N)cc2)c(Cl)c1` [Example 25] came in with an inhibition at 100 µM of 40%.

In the case of `Cc1cc(OC(=O)c2ccc(NC(=N)N)cc2)cc(OC(=O)c2ccc(NC(=N)N)cc2)c1` [Example 70], under setting [2], the IC50 was determined as 6.4 µM. Consider `N=C(N)Nc1ccc(C(=O)Oc2ccc(C(=O)c3ccccc3)c(Cl)c2Cl)cc1` [Example 57], for which 100 µM produced 50.5% inhibition (Y represents an oxygen atom). In turn, `N=C(N)Nc1ccc(C(=O)Oc2cccc(NC(=N)N)c2)cc1` [Example 116] returned an inhibition at 100 µM (Y represents an oxygen atom) of 20%. Turning to `N=C(N)Nc1ccc(C(=O)Oc2cc(Cl)cc(OS(=O)(=O)c3ccccc3)c2)cc1` [Example 77], the IC50 under setting [2] stood at 0.8 µM. Turning to `N=C(N)Nc1ccc(C(=O)Oc2cc(C(=O)O)cc(C(=O)O)c2)cc1` [Example 148], the inhibition at 100 µM (Y represents an oxygen atom) is 25%. On to `N=C(N)Nc1ccc(C(=O)Oc2cccc(C(=O)c3ccccc3)c2)cc1` [Example 54], for which the IC50 under setting [2] turned out to be 92 µM. With `Cc1cccc(SC(=O)c2ccc(NC(=N)N)cc2)c1` [Example 126], under setting [1], the IC50 came out at 5 µM. Further, the inhibition at 50 µg/mL (Y represents a sulfur atom) is 89.7%. `COC(=O)Cc1cccc(OC(=O)c2ccc(NC(=N)N)cc2)c1Cl` [Example 24]: under setting [2], the IC50 came out at 50 µM. The same measure, in the same setting: with `CC(=O)c1ccc(Cl)cc1OC(=O)c1ccc(NC(=N)N)cc1` [Example 51] the figure was 1.8 µM. Same read-out and setting: the result for `CCN(CC)S(=O)(=O)c1cccc(OC(=O)c2ccc(NC(=N)N)cc2)c1` [Example 92] reads 35 µM. For `COc1cc(Cl)cc(OC(=O)c2ccc(NC(=N)N)cc2)c1` [Example 39], the IC50 under setting [2] came to 2.4 µM. The same compound returned an inhibition at 100 µM (Y represents an oxygen atom) of 91.1%.

In the case of `N=C(N)Nc1ccc(C(=O)Sc2ccc(CC(=O)O)cc2)cc1` [Example 140], the inhibition at 50 µg/mL (Y represents a sulfur atom) stood at 47.8%. For `CS(=O)(=O)c1ccc(OC(=O)c2ccc(NC(=N)N)cc2)cc1` [Example 72], under setting [2], the IC50 is greater than 100 µM. Still for that read-out and setting: the result for `N=C(N)Nc1ccc(C(=O)Oc2cc(Cl)cc(C(=O)Nc3ccc(S(N)(=O)=O)cc3)c2)cc1` [Example 102] reads 1.3 µM. Take `N=C(N)Nc1ccc(C(=O)Sc2ccc(Cl)c(Cl)c2)cc1` [Example 137]: the inhibition at 50 µg/mL (Y represents a sulfur atom) stood at 35.5%. Compound `COc1ccccc1OC(=O)c1ccc(NC(=N)N)cc1` [Example 7] returned an inhibition at 100 µM (Y represents an oxygen atom) of 23.1%.

Regarding `CNC(=O)c1cccc(OC(=O)c2ccc(NC(=N)N)cc2)c1Cl` [Example 81], the IC50 under setting [2] worked out at 6 µM. On the same count and under the same terms, with `CS(=O)(=O)Nc1ccc(Cl)c(OC(=O)c2ccc(NC(=N)N)cc2)c1` [Example 105] the figure was 8.5 µM.

`N=C(N)Nc1ccc(C(=O)Oc2ccc(F)cc2)cc1` [Example 30] returned an inhibition at 100 µM (Y represents an oxygen atom) of 10.7%. On to `CCN(CC)S(=O)(=O)c1ccc(NC(=O)c2cc(Cl)cc(OC(=O)c3ccc(NC(=N)N)cc3)c2)cc1` [Example 104], for which the IC50 under setting [2] was 1.1 µM. As for `COC(=O)c1cccc(OC(=O)c2ccc(NC(=N)N)cc2)c1Cl` [Example 14], the IC50 under setting [2] amounted to 4 µM. Where the note is “Y represents an oxygen atom”, at 100 µM the inhibition was 90.7%. The corresponding values for `COCc1cc(O)cc(OC(=O)c2ccc(NC(=N)N)cc2)c1` [Example 12] are greater than 200 µM and 14%.

Take `CN(C)S(=O)(=O)c1ccc(OC(=O)c2ccc(NC(=N)N)cc2)cc1Cl` [Example 90]: under setting [2], the IC50 amounted to 140 µM.

As for `COc1ccc(Cl)c(OC(=O)c2ccc(NC(=N)N)cc2)c1` [Example 41], the IC50 under setting [2] amounted to 13 µM. Regarding `CC(=O)c1cc(OC(=O)c2ccc(NC(=N)N)cc2)cc(OC(=O)c2ccc(NC(=N)N)cc2)c1` [Example 66], the IC50 under setting [2] was 72 µM. For `N=C(N)Nc1ccc(C(=O)Oc2ccc(I)cc2)cc1` [Example 44], the inhibition at 100 µM (Y represents an oxygen atom) worked out at 11.2%. Take `CCN(CC)S(=O)(=O)c1cc(Cl)cc(OC(=O)c2ccc(NC(=N)N)cc2)c1` [Example 95]: the IC50 under setting [2] was 4.8 µM.

`N=C(N)Nc1ccc(C(=O)Oc2cc(OC(=O)c3ccc(NC(=N)N)cc3)cc(OC(=O)c3ccc(NC(=N)N)cc3)c2)cc1` [Example 65] displayed an inhibition at 100 µM (Y represents an oxygen atom) of 38%. With `CCC(=O)Oc1cc(Cl)cc(OC(=O)c2ccc(NC(=N)N)cc2)c1` [Example 62], under setting [2], the IC50 is 0.38 µM. Turning to `CCS(=O)(=O)Oc1cc(COC)cc(OC(=O)c2ccc(NC(=N)N)cc2)c1` [Example 11], the IC50 under setting [2] turned out to be 60 µM. Under “Y represents an oxygen atom”, at 100 µM the inhibition was 66%.

In the case of `COC(=O)Cc1ccc(OC(=O)c2ccc(NC(=N)N)cc2)cc1Cl` [Example 26], under “Y represents an oxygen atom”, the inhibition at 100 µM was 13.3%. On to `N=C(N)Nc1ccc(C(=O)Oc2cccc(Br)c2)cc1` [Example 43], for which, under setting [2], the IC50 is 6 µM. Besides, the inhibition at 100 µM (Y represents an oxygen atom) stood at 91.7%.

For `N=C(N)Nc1ccc(C(=O)Oc2cccc(F)c2F)cc1` [Example 32], the IC50 under setting [2] worked out at 3.7 µM.

On to `CNC(=O)c1cc(OC(=O)c2ccc(NC(=N)N)cc2)cc(OC(=O)c2ccc(NC(=N)N)cc2)c1` [Example 82], for which 100 µM produced 38% inhibition (Y represents an oxygen atom). For `COc1cc(O)cc(OC(=O)c2ccc(NC(=N)N)cc2)c1` [Example 110], the IC50 under setting [2] was determined as 20 µM. In the case of `N=C(N)Nc1ccc(C(=O)Oc2cccc(S(N)(=O)=O)c2)cc1` [Example 89], under setting [2], the IC50 came out at 65 µM. For `CCc1cccc(OC(=O)c2ccc(NC(=N)N)cc2)c1` [Example 6], the inhibition at 100 µM (Y represents an oxygen atom) worked out at 39.6%.

Turning to `N=C(N)Nc1ccc(C(=O)Sc2ccc(F)cc2)cc1` [Example 131], under setting [1], the IC50 worked out at 21 µM. Also, where the note is “Y represents a sulfur atom”, the inhibition at 50 µg/mL was determined as 83%. With `CCC(=O)c1ccc(Cl)cc1OC(=O)c1ccc(NC(=N)N)cc1` [Example 52], the IC50 under setting [2] was found to be 1.6 µM. The same measure, in the same setting: with `N=C(N)Nc1ccc(C(=O)Oc2cc(Cl)cc(COc3cccnc3)c2)cc1` [Example 121] the figure was 1.1 µM; with `CS(=O)(=O)Oc1cc(Cl)cc(OC(=O)c2ccc(NC(=N)N)cc2)c1` [Example 74], 1 µM. On to `COC(=O)c1ccccc1SC(=O)c1ccc(NC(=N)N)cc1` [Example 141], for which the IC50 under setting [1] worked out at 2.6 µM. For the same compound, for the setting “Y represents a sulfur atom”, the inhibition at 50 µg/mL turned out to be 96.3%. The corresponding values for `N=C(N)Nc1ccc(C(=O)Sc2ccccc2Br)cc1` [Example 138] are 1.6 µM and 83.1%. `N=C(N)Nc1ccc(C(=O)Oc2cc(OC(=O)c3ccc(NC(=N)N)cc3)cc(C(=O)NCc3ccccc3)c2)cc1` [Example 85] came in with an inhibition at 100 µM (Y represents an oxygen atom) of 27%. Still for that read-out and setting: with `CC(=O)c1cccc(OC(=O)c2ccc(NC(=N)N)cc2)c1` [Example 48] the figure was 4.1%. The compound `N=C(N)Nc1ccc(C(=O)Oc2ccc(S(=O)(=O)N3CCOCC3)cc2)cc1` [Example 101] gave an inhibition at 100 µM (Y represents an oxygen atom) of 34.9%. For the compound `CC(=O)Oc1cc(Cl)cc(OC(=O)c2ccc(NC(=N)N)cc2)c1` [Example 61], the IC50 under setting [2] was 0.48 µM.

The values above are taken from patent US5247084A, “Derivatives of p-guanidinobenzoic acid” (priority 1985, dated 1993).
